# US7446091B2, “Methods and preparations for curing clinically ill patients” (Novo Nordisk A/S, priority 2000, dated 2008)
# Where “and” joins values, the source holds several entries; their conditions need not be identical. Identical values can stand only once.
# Tests used:
# [1] = test system: mechanically ventilated, adult patients admitted to the intensive care unit (ICU); assay: Example 2: prospective, randomized, controlled study, mortality analysis; type: in vivo, human
# Excerpt: All mechanically ventilated, adult patients admitted to the intensive care unit (ICU) were eligible for inclusion.
# All mechanically ventilated, adult (age>18y) patients admitted to our 56-bed, mainly surgical, ICU from Feb. 2, 2000 onward were considered eligible for inclusion. […] Informed consent was obtained from the closest family member. The study protocol was approved by the Institutional Review Board of the Catholic University of Leuven School of Medicine.
# Consecutive patients were randomly assigned to one of these two treatment groups using blinded envelopes, stratified according to type of critical illness diagnosed on admission [(a) neurological disease, cerebral trauma or surgery; (b) cardiac surgery; (c) thoracic surgery and/or respiratory insufficiency; (d) abdominal surgery/peritonitis; (e) vascular surgery; (f) multiple trauma or severe burns: (g) organ transplantation; (h) others, mainly extensive oncological procedures] and balanced with the use of permuted blocks of ten.
# All patients were fed continuously, on admission with mainly intravenous glucose (200-300 g/24 h) and from the next day onward with a standardised feeding schedule aiming for a caloric content up to 20-30 non-protein Calories/kg/24 h and a balanced composition (0.13-0.26 g nitrogen/kg/24 h and 20%-40% of non-protein Calories as lipids) of either total parenteral, combined parenteral/enteral or full enteral feeding, the latter mode attempted as early as possible. Other comcomitant ICU therapy was left to the discretion of attending physicians.
# In patients treated in ICU for more than one week, a weekly electromyography (EMG) was performed to screen for Critical Illness Polyneuropathy. EMGs were interpreted by the same electrophysiologist who was blinded for randomization. In case of ICU death, a post-mortem examination was performed to confirm the presumed cause of death.
# The primary outcome measure was death from all causes during intensive care. Secondary outcome measures were in-hospital mortality, incidence of prolonged intensive care dependency and need for ICU re-admission, need for vital organ system support comprising mechanical ventilatory support, renal replacement therapy (continuous or intermittent hemofiltration or dialysis), inotropic or vasopressor support, incidence of critical illness polyneuropathy, the degree of inflammation, incidence of blood stream infections and use of antibiotics, transfusion requirements and incidence of hyperbilirubinemia. Furthermore, use of intensive care resources was analysed by cumulative TISS scores. In order to accurately and objectively assess duration of ICU stay, which is often influenced by non-patient related factors such as bed availability on regular wards, patients were defined ‘dischargable from ICU’ when they were no longer in need of vital organ system support and received at least ⅔rd of the caloric need through the normal enteral route or earlier when actually sent to a ward.
# We hypothesized to detect a difference in mortality selectively in long-stay (>5 days) critically ill patients. Since prolonged ICU stay is not predictable at ICU admission, and since we aimed at treatment from admission onward, we chose to include all mechanically ventilated patients admitted to the ICU, without selection. We estimated that inclusion of 2500 admissions would be needed to rule out an absolute difference in mortality of ±5% in the long-stay cohort which would translate in an absolute risk reduction of ±2% for overall ICU mortality (2-sided alfa level of <0.05). […] All analyses were done on intention to treat basis.
# Baseline and outcome variables were compared using Student's t-test, Chi-square test and Mann-Whitney-U test, as appropriate. Death odds ratios were calculated using multivariate logistic regression analysis.
# [2] = test system: mechanically ventilated, adult patients admitted to the intensive care unit (ICU); assay: Example 2: glycemia control (whole blood glucose); type: in vivo
# Protocol: A blood sample was taken upon ICU admission and daily at 06:00 h until discharge from ICU or death. On-admission and daily morning, whole blood glucose level as well as daily maximal and minimal glycemia were analysed. Analyses on the 06:00 h sample also included clinical chemistry, hematology and markers of inflammation.
substance,measurement,setting,value
insulin,Causes of death during intensive care - total no: cardiogenic shock,[1]; IIS,10
same,Causes of death during intensive care - total no: multiple organ failure with proven septic focus,[1]; IIS,8
same,"Causes of death during intensive care - total no: multiple organ failure, no detectable septic focus",[1]; IIS,14
same,Causes of death during intensive care - total no: severe brain damage,[1]; IIS,3
same,ICU deaths among patients staying >5 days (%),[1]; IIS,(10.6%)
same,ICU deaths among patients staying >5 days - total no.,[1]; IIS,22
same,ICU deaths among patients staying ≤5 days (%),[1]; IIS,(2.3%)
same,ICU deaths among patients staying ≤5 days - total no.,[1]; IIS,13
same,"ICU deaths, abdominal surgery/peritonitis (%)",[1]; IIS,(13.3%)
same,"ICU deaths, abdominal surgery/peritonitis - total no",[1]; IIS,6
same,"ICU deaths, cardiac surgery (%)",[1]; IIS,(2%)
same,"ICU deaths, cardiac surgery - total no.",[1]; IIS,10
same,"ICU deaths, multiple trauma or severe burns (%)",[1]; IIS,(12.1%)
same,"ICU deaths, multiple trauma or severe burns - total no.",[1]; IIS,4
same,"ICU deaths, neurological disease, cerebral trauma or surgery (%)",[1]; IIS,(18.1%)
same,"ICU deaths, neurological disease, cerebral trauma or surgery - total no.",[1]; IIS,6
same,"ICU deaths, other types of critical illness (%)",[1]; IIS,(8.7%)
same,"ICU deaths, other types of critical illness - total no",[1]; IIS,25
same,"ICU deaths, others (%)",[1]; IIS,(0%)
same,"ICU deaths, others - total no",[1]; IIS,0
same,"ICU deaths, thoracic surgery and/or respiratory insufficiency - total no.",[1]; IIS,5
same,"ICU deaths, transplantation (%)",[1]; IIS,(4.3%)
same,"ICU deaths, transplantation - total no",[1]; IIS,2
same,"ICU deaths, vascular surgery (%)",[1]; IIS,(6.6%)
same,"ICU deaths, vascular surgery - total no.",[1]; IIS,2
same,In-hospital deaths among patients staying >5 days in ICU (%),[1]; IIS,(16.8%)
same,In-hospital deaths among patients staying >5 days in ICU - total no.,[1]; IIS,35
same,In-hospital deaths among patients staying ≤5 days in ICU (%),[1]; IIS,(3.6%)
same,In-hospital deaths among patients staying ≤5 days in ICU - total no.,[1]; IIS,20
same,Mortality in bacteremic patients,[1]; IIS,12.5%
same,"ICU deaths among patients staying >5 days, NNT",[1]; IIS vs RIS,11
same,"ICU deaths among patients staying >5 days, RRR (%)",[1]; IIS vs RIS,47%
same,"ICU deaths among patients staying ≤5 days, RRR (%)",[1]; IIS vs RIS,=
same,"ICU deaths, NNT to save one life",[1]; IIS vs RIS,29
same,"ICU deaths, RRR (%)",[1]; IIS vs RIS,43%
same,"In-hospital deaths among patients staying >5 days in ICU, NNT",[1]; IIS vs RIS,11
same,"In-hospital deaths among patients staying >5 days in ICU, RRR (%)",[1]; IIS vs RIS,36%
same,"In-hospital deaths among patients staying ≤5 days in ICU, RRR (%)",[1]; IIS vs RIS,=
same,"In-hospital deaths, NNT",[1]; IIS vs RIS,27
same,"In-hospital deaths, RRR (%)",[1]; IIS vs RIS,34%
same,"ICU mortality, absolute risk reduction in the prolonged critically ill cohort","[1]; IIS vs RIS, ICU stay >5 days",9.6%
same,ICU deaths - total no.,"[1]; IIS, N = 765",35
same,In-hospital deaths - total no.,"[1]; IIS, N = 765",55
same,Causes of death during intensive care - total no: cardiogenic shock,[1]; RIS,7
same,Causes of death during intensive care - total no: multiple organ failure with proven septic focus,[1]; RIS,33
same,"Causes of death during intensive care - total no: multiple organ failure, no detectable septic focus",[1]; RIS,18
same,Causes of death during intensive care - total no: severe brain damage,[1]; RIS,5
same,ICU deaths among patients staying >5 days (%),[1]; RIS,(20.2%)
same,ICU deaths among patients staying >5 days - total no.,[1]; RIS,49
same,ICU deaths among patients staying ≤5 days (%),[1]; RIS,(2.6%)
same,ICU deaths among patients staying ≤5 days - total no.,[1]; RIS,14
same,"ICU deaths, abdominal surgery/peritonitis (%)",[1]; RIS,(15.5%)
same,"ICU deaths, abdominal surgery/peritonitis - total no",[1]; RIS,9
same,"ICU deaths, cardiac surgery (%)",[1]; RIS,(5%)
same,"ICU deaths, cardiac surgery - total no.",[1]; RIS,25
same,"ICU deaths, multiple trauma or severe burns (%)",[1]; RIS,(8.6%)
same,"ICU deaths, multiple trauma or severe burns - total no.",[1]; RIS,3
same,"ICU deaths, neurological disease, cerebral trauma or surgery (%)",[1]; RIS,(23.3%)
same,"ICU deaths, neurological disease, cerebral trauma or surgery - total no.",[1]; RIS,7
same,"ICU deaths, other types of critical illness (%)",[1]; RIS,(13.1%)
same,"ICU deaths, other types of critical illness - total no",[1]; RIS,38
same,"ICU deaths, others (%)",[1]; RIS,(17.1%)
same,"ICU deaths, others - total no",[1]; RIS,6
same,"ICU deaths, thoracic surgery and/or respiratory insufficiency (%)",[1]; RIS,(17.9%)
same,"ICU deaths, thoracic surgery and/or respiratory insufficiency - total no.",[1]; RIS,10
same,"ICU deaths, transplantation (%)",[1]; RIS,(2.3%)
same,"ICU deaths, transplantation - total no",[1]; RIS,1
same,"ICU deaths, vascular surgery (%)",[1]; RIS,(6.3%)
same,"ICU deaths, vascular surgery - total no.",[1]; RIS,2
same,In-hospital deaths among patients staying >5 days in ICU (%),[1]; RIS,(26.3%)
same,In-hospital deaths among patients staying >5 days in ICU - total no.,[1]; RIS,64
same,In-hospital deaths among patients staying ≤5 days in ICU (%),[1]; RIS,(3.9%)
same,In-hospital deaths among patients staying ≤5 days in ICU - total no.,[1]; RIS,21
same,Mortality in bacteremic patients,[1]; RIS,29.5%
same,ICU deaths - total no.,"[1]; RIS, N = 783",63
same,In-hospital deaths - total no.,"[1]; RIS, N = 783",85
same,ICU mortality among the RIS patients actually receiving insulin,"[1]; RIS, insulin-receiving patients",12.4%
same,Mean 06:00 h blood glucose level when on insulin (mmol/L) (mean ± SD),[2]; IIS,5.7 ± 1.0 mmol/L
same,Patients who never exceeded 6.1 mmol/L after treatment initiation,[2]; IIS,48%
same,Patients who occasionally peaked over 8.4 mmol/L,[2]; IIS,17%
same,Patients with blood glucose levels that failed to go below 6.1 mmol/L within 48 h,[2]; IIS,0.1%
same,Consequences of hypoglycemia events,[2]; IIS and RIS,never induced serious symptoms such as hemodynamic deterioration or epilepsia
same,Mean 06:00 h blood glucose level (mmol/L) (mean ± SD),"[2]; IIS, N = 765",5.8 ± 1.0 mmol/L and 5.7 ± 1.0 mmol/L
same,Mean 06:00 h blood glucose level when on insulin (mmol/L) (mean ± SD),[2]; RIS,9.6 ± 1.8 mmol/L
same,"Patients in whom glycemia transiently fell below 2.3 mmol/L, number",[2]; RIS,6
same,Mean 06:00 h blood glucose level (mmol/L) (mean ± SD),"[2]; RIS, N = 783",8.5 ± 1.8 mmol/L
